Laboratory results: patent US12157730B2, “Heteroaryl derivative, method for producing same, and pharmaceutical composition comprising same as effective component” (VORONOI INC., priority 2019, dated 2024)

Each molecule was assayed against T1, Ba/F3 cell EGFR Exon20 ins NPH (Homo sapiens, UniProt P00533, INS773NPH) (assay: Ba/F3 cell proliferation suppression, EGFR Exon20 ins NPH). Conditions: GI50 class; Ba/F3 cell line with NPH inserted at Exon20 of EGFR; 72 hours.
T1 construct: expressed in transfected cells; host or cells: Ba/F3
Format: cell-based
In short: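 Seed 3000–5000 cells/well; after 24 h add compound (12 conc., 0.3 nM–50 um final); incubate 72 h; add CellTiter-Glo, 10 min room temperature; read luminescence; GI50 from % growth vs control, triplicate.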

Row | Ba/F3 (NPH) Activity | SMILES
1 | A (GI50 < 50 nM) | C=CC(=O)Nc1cc(Nc2cc(N3OCC[C@@H]3c3ccc(F)c(Cl)c3)ncn2)c(OC)cc1N(C)CCN(C)C [compound 701, N-(5-((6-((R)-3-(3-chloro-4-fluorophenyl)isoxazolidine-2-yl)pyrimidine-4-yl)amino)-2-((2-(dimethylamino)ethyl)(methyl)amino)-4-methoxyphenyl) acrylamide]
2 | A (GI50 < 50 nM) | C=CC(=O)Nc1cc(Nc2cc(N3OCC[C@@H]3c3cccc(OC)c3)ncn2)c(OC)cc1N1CCC(N2CCN(CCC)CC2)CC1 [compound 549, N-(4-methoxy-5-((6-((R)-3-(3-methoxyphenyl)isoxazolidine-2-yl)pyrimidine-4-yl)amino)-2-(4-(4-propylpiperazine-1-yl)piperidine-1-yl)phenyl) acrylamide]
3 | A (GI50 < 50 nM) | C=CC(=O)Nc1cc(Nc2cc(N3OCC[C@@H]3c3cc(F)cc(F)c3)ncn2)c(OC)cc1N1CCN(C)[C@H](C)C1 [compound 917, N-(5-((6-((R)-3-(3,5-difluorophenyl)isoxazolidine-2-yl)pyrimidine-4-yl)amino)-2-((R)-3,4-dimethylpiperazine-1-yl)-4-methoxyphenyl) acrylamide]
4 | A (GI50 < 50 nM) | C=CC(=O)Nc1cc(Nc2cc(N3OCC[C@@H]3c3cccc(Cl)c3F)ncn2)c(OC)cc1N1CCC(N2C[C@H]3CC[C@@H](C2)O3)CC1 [compound 322, N-(2-(4-((1R,5S)-8-oxa-3-azabicyclo[3.2.1]octan-3-yl)piperidine-1-yl)-5-((6-((R)-3-(3-chloro-2-fluorophenyl)isoxazolidine-2-yl)pyrimidine-4-yl)amino)-4-methoxyphenyl) acrylamide]
5 | C (500 nM ≤ GI50 < 5000 nM) | C=CC(=O)Nc1cc(Nc2cc(N3OCC[C@H]3c3c(F)cccc3F)ncn2)c(OC)cc1N1CCC(N2CC[C@H](N(C)C)C2)CC1 [compound 315, N-(5-((6-((S)-3-(2,6-difluorophenyl)isoxazolidine-2-yl)pyrimidine-4-yl)amino)-2-(4-((S)-3-(dimethylamino)pyrolidine-1-yl)piperidine-1-yl)-4-methoxyphenyl) acrylamide]
6 | A (GI50 < 50 nM) | C=CC(=O)Nc1cc(Nc2cc(N3OCC[C@@H]3c3ccc(Cl)cc3F)ncn2)c(OC)cc1N1CCC(N2CCN(C(C)C)CC2)CC1 [compound 408, N-(5-((6-((R)-3-(4-chloro-2-fluorophenyl)isoxazolidine-2-yl)pyrimidine-4-yl)amino)-2-(4-(4-isopropylpiperazine-1-yl)piperidine-1-yl)-4-methoxyphenyl) acrylamide]
7 | A (GI50 < 50 nM) | C=CC(=O)Nc1cc(Nc2cc(N3OCC[C@@H]3c3ccc(F)cc3)ncn2)c(OC)cc1N1CCC(N2CCN(C(C)=O)CC2)CC1 [compound 809, N-(2-(4-(4-acetylpiperazine-1-yl)piperidine-1-yl)-5-((6-((R)-3-(4-fluorophenyl)isoxazolidine-2-yl)pyrimidine-4-yl)amino)-4-methoxyphenyl) acrylamide]
8 | A (GI50 < 50 nM) | C=CC(=O)Nc1cc(Nc2cc(N3OCC[C@@H]3c3ccc(F)cc3F)ncn2)c(OC)cc1N1CCOCC1 [compound 325, N-(5-((6-((R)-3-(2,4-difluorophenyl)isoxazolidine-2-yl)pyrimidine-4-yl)amino)-4-methoxy-2-morpholinophenyl) acrylamide]
9 | A (GI50 < 50 nM) | C=CC(=O)Nc1cc(Nc2cc(N3OCC[C@@H]3c3ccc(Cl)cc3)ncn2)c(OC)cc1N1CCC(N2CCOCC2)CC1 [compound 782, N-(5-((6-((R)-3-(4-chlorophenyl)isoxazolidine-2-yl)pyrimidine-4-yl)amino)-4-methoxy-2-(4-morpholinopiperidine-1-yl)phenyl)acrylamide]
10 | A (GI50 < 50 nM) | C=CC(=O)Nc1cc(Nc2cc(N3OCC[C@@H]3Cc3cccc(Cl)c3Cl)ncn2)c(OC)cc1N1CCC(N2C[C@@H](C)O[C@@H](C)C2)CC1 [compound 1010, N-(5-((6-((S)-3-(2,3-dichlorobenzyl)isoxazolidine-2-yl)pyrimidine-4-yl)amino)-2-(4-((2S,6R)-2,6-dimethylmorpholino)piperidine-1-yl)-4-methoxyphenyl) acrylamide]
11 | A (GI50 < 50 nM) | C=CC(=O)Nc1cc(Nc2cc(N3OCC[C@@H]3c3cc(F)ccc3F)ncn2)c(OC)cc1N1CCN(C)CC1 [compound 818, N-(5-((6-((R)-3-(2,5-difluorophenyl)isoxazolidine-2-yl)pyrimidine-4-yl)amino)-4-methoxy-2-(4-methylpiperazine-1-yl)phenyl)acrylamide]
12 | A (GI50 < 50 nM) | C=CC(=O)Nc1cc(Nc2cc(N3OCC[C@@H]3Cc3cccc(F)c3Cl)ncn2)c(OC)cc1N1CCC(N2CCN(C3CC3)CC2)CC1 [compound 1007, N-(5-((6-((S)-3-(2-chloro-3-fluorobenzyl)isoxazolidine-2-yl)pyrimidine-4-yl)amino)-2-(4-(4-cyclopropylpiperazine-1-yl)piperidine-1-yl)-4-methoxyphenyl) acrylamide]
13 | A (GI50 < 50 nM) | C=CC(=O)Nc1cc(Nc2cc(N3OCC[C@@H]3c3cccc(Cl)c3)ncn2)c(OC)cc1N1CCC(N2CCN(C(C)C)CC2)CC1 [compound 461, N-(5-((6-((R)-3-(3-chlorophenyl)isoxazolidine-2-yl)pyrimidine-4-yl)amino)-2-(4-(4-isopropylpiperazine-1-yl)piperidine-1-yl)-4-methoxyphenyl) acrylamide]
14 | A (GI50 < 50 nM) | C=CC(=O)Nc1cc(Nc2cc(N3OCC[C@@H]3c3cccc(Cl)c3F)ncn2)c(OC)cc1N1CCC(N2C[C@H](C)N(C3CC3)C[C@@H]2C)CC1 [Example 128, N-(5-((6-((R)-3-(3-chloro-2-fluorophenyl)isoxazolidine-2-yl)pyrimidine-4-yl)amino)-2-(4-((2S,5S)-4-cyclopropyl-2,5-dimethylpiperazine-1-yl)piperidine-1-yl)-4-methoxyphenyl) acrylamide]
15 | A (GI50 < 50 nM) | C=CC(=O)Nc1cc(Nc2cc(N3OCC[C@@H]3c3ccc(Cl)cc3F)ncn2)c(OC)cc1N1CC[C@@H](N2CCOCC2)C1 [compound 406, N-(5-((6-((R)-3-(4-chloro-2-fluorophenyl)isoxazolidine-2-yl)pyrimidine-4-yl)amino)-4-methoxy-2-((R)-3-morpholinopyrolidine-1-yl)phenyl)acrylamide]
16 | A (GI50 < 50 nM) | C=CC(=O)Nc1cc(Nc2cc(N3OCC[C@@H]3c3cccc4ccccc34)ncn2)c(OC)cc1N1CCC(N2CCN(C3CC3)[C@H](C)C2)CC1 [Example 155, N-(2-(4-((R)-4-cyclopropyl-3-methylpiperazine-1-yl)piperidine-1-yl)-4-methoxy-5-((6-((R)-3-(naphthalene-1-yl)isoxazolidine-2-yl)pyrimidine-4-yl)amino)phenyl)acrylamide]
17 | A (GI50 < 50 nM) | C=CC(=O)Nc1cc(Nc2cc(N3OCC[C@@H]3c3cccc(F)c3Cl)ncn2)c(OC)cc1N1CCC(N2CCN(C3CCC3)CC2)CC1 [Example 192, N-(5-((6-((R)-3-(2-chloro-3-fluorophenyl)isoxazolidine-2-yl)pyrimidine-4-yl)amino)-2-(4-(4-cyclobutylpiperazine-1-yl)piperidine-1-yl)-4-methoxyphenyl) acrylamide]
18 | A (GI50 < 50 nM) | C=CC(=O)Nc1cc(Nc2cc(N3OCC[C@@H]3c3ccc(Cl)cc3)ncn2)c(OC)cc1N1CCC(N2CCN(C3CC3)CC2)CC1 [Example 58, N-(5-((6-((R)-3-(4-chlorophenyl)isoxazolidine-2-yl)pyrimidine-4-yl)amino)-2-(4-(4-cyclopropylpiperazine-1-yl)piperidine-1-yl)-4-methoxyphenyl) acrylamide]
19 | A (GI50 < 50 nM) | C=CC(=O)Nc1cc(Nc2cc(N3OCC[C@@H]3c3cccc(F)c3Cl)ncn2)c(OC)cc1N1CCC(N2C[C@H]3CCN(C)[C@H]3C2)CC1 [compound 447, N-(5-((6-((R)-3-(2-chloro-3-fluorophenyl)isoxazolidine-2-yl)pyrimidine-4-yl)amino)-4-methoxy-2-(4-((3aR,6aR)-1-methylhexahydropyrrolo [3,4-b]pyrrole-5(1H)-yl)piperidine-1-yl)phenyl)acrylamide]
20 | A (GI50 < 50 nM) | C=CC(=O)Nc1cc(Nc2cc(N3OCC[C@@H]3c3cc(F)cc(F)c3)ncn2)c(OC)cc1N1CCC(N2CCN(C(C)C)CC2)CC1 [Example 265, N-(5-((6-((R)-3-(3,5-difluorophenyl)isoxazolidine-2-yl)pyrimidine-4-yl)amino)-2-(4-(4-isopropylpiperazine-1-yl)piperidine-1-yl)-4-methoxyphenyl) acrylamide]
21 | A (GI50 < 50 nM) | C=CC(=O)Nc1cc(Nc2cc(N3OCC[C@@H]3c3cccc(Cl)c3Cl)ncn2)c(OC)cc1N1CCC(N2CCOCC2)CC1 [compound 521, N-(5-((6-((R)-3-(2,3-dichlorophenyl)isoxazolidine-2-yl)pyrimidine-4-yl)amino)-4-methoxy-2-(4-morpholinopiperidine-1-yl)phenyl)acrylamide]
22 | A (GI50 < 50 nM) | C=CC(=O)Nc1cc(Nc2cc(N3OCC[C@@H]3c3cc(F)ccc3F)ncn2)c(OC)cc1N1CCC(N2CC3CCC(C2)O3)CC1 [compound 820, N-(2-(4-(8-oxa-3-azabicyclo[3.2.1]octan-3-yl)piperidine-1-yl)-5-((6-((R)-3-(2,5-difluorophenyl)isoxazolidine-2-yl)pyrimidine-4-yl)amino)-4-methoxyphenyl) acrylamide]

Row | SMILES | Ba/F3 (NPH) Activity
23 | C=CC(=O)Nc1cc(Nc2cc(N3OCC[C@@H]3c3cccc(F)c3Cl)ncn2)c(OC)cc1N1CCC(N2CC3CCC(C2)N3C2CC2)CC1 [Example 142, N-(5-((6-((R)-3-(2-chloro-3-fluorophenyl)isoxazolidine-2-yl)pyrimidine-4-yl)amino)-2-(4-(8-cyclopropyl-3,8-diazabicyclo[3.2.1]octan-3-yl)piperidine-1-yl)-4-methoxyphenyl) acrylamide] | A (GI50 < 50 nM)
